Measured values reported in patent US9340577B2, “HLA binding motifs and peptides and their uses” (priority 1992, dated 2016).
No end group written: not given here.

Legend:
Test in all cases: biochemical
DRB1*0301 = DRB1*0301 (Homo sapiens, UniProt P01903+P01911, A100K/A102G/A103R/A169T/F55Y/I96L/K41T/L162R/M171V/P40S/Q125H/Q178H/Q39Y/R42S/S66N/T106N/T262R/W38E/Y61H); type: binding
DRB1*0802 = DRB1*0802 (Homo sapiens, UniProt P01903+P01911, A100R/A103L/A169T/F76Y/H45Y/I96F/K41T/L162R/M171V/P40S/Q125H/Q178H/Q39Y/Q99D/R218S/R42G/S66Y/V115G/W38E); type: binding
DRB1*1201 = DRB1*1201 (Homo sapiens, UniProt P01903+P01911, A100R/A169T/D57E/D86V/F55L/H45Y/K41T/L162R/M171V/P40S/Q125H/Q178H/Q39Y/Q99D/R42G/S66L/T262R/V114A/V67L/W38E/Y59H/Y61H/Y89S); type: binding
DRB3*0101 = DRB3*0101 (Homo sapiens, UniProt P01903+P79483); type: binding
DRB5*0101 = DRB5*0101 (Homo sapiens, UniProt P01903+Q30154); conditions: Binding affinity DRB5 *0101
DR7 (DRB1*0701) = DR7 (DRB1*0701) (Homo sapiens, UniProt P01903+P01911, A100R/A102G/A103Q/D57E/D86V/E43K/F76Y/K127E/L162R/M171V/P40G/Q125H/Q99D/R33Q/R42Y/R54Q/S133A/S66F/T210M/V115G/Y107V/Y59L/Y89S); type: binding
DRB1*1302 = DRB1*1302 (Homo sapiens, UniProt P01903+P01911, A100E/A169T/K41T/L162R/M171V/P40S/Q125H/Q178H/Q39Y/Q99D/R42S/S66N/T262R/V115G/W38E/Y61H); type: binding
Sequence of DRB1*1302 (P01903 26-254 limits assumed, other chains not shown): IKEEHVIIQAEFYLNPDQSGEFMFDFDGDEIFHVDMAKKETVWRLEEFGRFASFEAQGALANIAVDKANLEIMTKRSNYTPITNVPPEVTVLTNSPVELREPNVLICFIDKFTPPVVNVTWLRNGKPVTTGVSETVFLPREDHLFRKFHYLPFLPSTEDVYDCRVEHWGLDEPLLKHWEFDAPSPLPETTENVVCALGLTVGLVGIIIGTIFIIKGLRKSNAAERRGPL

DRB4*0101 = DRB4*0101 (Homo sapiens, UniProt P01903+P13762, G164S); type: binding
DR1 (DRB1*0101) = DR1 (DRB1*0101) (Homo sapiens, UniProt P01903+P01911, A100R/D57E/F55L/F60I/F76Y/I96L/L162R/M171V/P40L/Q125E/R42F/V115G/Y59C); type: binding
DR4w4 (DRB1*0401) = DR4w4 (DRB1*0401) (Homo sapiens, UniProt P01903+P01911, A100K/A169T/F76Y/I96L/K127E/L162R/M171V/N62H/P40V/Q125Y/R42H/S133A/S149N/S66Y/V115G/V209L/W38E); type: binding
DRB1*0405 = DRB1*0405 (Homo sapiens, UniProt P01903+P01911, A100R/A169T/D86S/F76Y/I96L/K127E/L162R/M171V/N62H/P40V/Q125Y/R42H/S133A/S149N/S66Y/V115G/V209L/W38E); type: binding
DRB1*0901 = DRB1*0901 (Homo sapiens, UniProt P01903+P01911, A100R/A103E/D57H/D86V/F55Y/F60I/F76Y/I96F/K127E/L162R/M171V/P40D/Q125H/Q99R/R33Q/R42F/S133A/S66N/T210M/V115G/W38K/Y107V/Y59G/Y89S); type: binding
DRB1*1501 = DRB1*1501 (Homo sapiens, UniProt P01903+P01911); type: binding
DRB1*1101 = DRB1*1101 (Homo sapiens, UniProt P01903+P01911, A100R/A169T/A87E/I96F/K41T/L162R/M171V/P40S/Q125H/Q178H/Q39Y/Q99D/R42S/S66Y/T262R/V115G/W38E); conditions: Binding affinity DRB1 *1101
Sequence of DRB1*1101 (P01903 26-254 limits assumed, other chains not shown): as above

Sequence of DRB1*0301 (P01903 26-254 limits assumed, other chains not shown): as above

Compound	IC50 (DRB1*0301)	IC50 (DRB1*0802)	IC50 (DRB1*1201)	IC50 (DRB3*0101)	IC50 (DRB5*0101)	IC50 (DR7 (DRB1*0701))	IC50 (DRB1*1302)	IC50 (DRB4*0101)	IC50 (DR1 (DRB1*0101))	IC50 (DR4w4 (DRB1*0401))	IC50 (DRB1*0405)	IC50 (DRB1*0901)	IC50 (DRB1*1501)	IC50 (DRB1*1101)
CC[C@H](C)[C@H](NC(=O)[C@@H]1CCCN1C(=O)[C@H](CC(N)=O)NC(=O)[C@@H](N)Cc1c[nH]c2ccccc12)C(=O)N[C@@H](CC(C)C)C(=O)N[C@@H](CC(C)C)C(=O)N[C@@H](Cc1c[nH]c2ccccc12)C(=O)N[C@@H](CCC(N)=O)C(=O)N1CCC[C@H]1C(=O)N[C@H](C(=O)N1CCC[C@H]1C(=O)N[C@H](C(=O)N[C@@H](Cc1c[nH]cn1)C(=O)N[C@H](C(=O)N[C@H](C(=O)O)C(C)C)[C@@H](C)O)C(C)C)[C@@H](C)CC [Peptide 68.0035]	> 20 µM	> 20 µM	5.69 µM	> 20 µM	–	–	–	–	–	–	–	–	–	–
CC[C@H](C)[C@H](NC(=O)[C@@H]1CCCN1C(=O)[C@@H](N)CC(N)=O)C(=O)N[C@@H](CC(C)C)C(=O)N[C@@H](CC(C)C)C(=O)N[C@@H](Cc1c[nH]c2ccccc12)C(=O)N[C@@H](CCC(N)=O)C(=O)N1CCC[C@H]1C(=O)N[C@H](C(=O)N1CCC[C@H]1C(=O)N[C@H](C(=O)N[C@@H](Cc1c[nH]cn1)C(=O)N[C@H](C(=O)N[C@H](C(=O)N1CCC[C@H]1C(=O)O)C(C)C)[C@@H](C)O)C(C)C)[C@@H](C)CC [Peptide 68.0036]	> 20 µM	–	0.612 µM	> 20 µM	> 20 µM	–	–	–	–	–	–	–	–	–
CC[C@H](C)[C@H](NC(=O)[C@@H]1CCCN1)C(=O)N[C@@H](CC(C)C)C(=O)N[C@@H](CC(C)C)C(=O)N[C@@H](Cc1c[nH]c2ccccc12)C(=O)N[C@@H](CCC(N)=O)C(=O)N1CCC[C@H]1C(=O)N[C@H](C(=O)N1CCC[C@H]1C(=O)N[C@H](C(=O)N[C@@H](Cc1c[nH]cn1)C(=O)N[C@H](C(=O)N[C@H](C(=O)N1CCC[C@H]1C(=O)N[C@@H](CC(C)C)C(=O)O)C(C)C)[C@@H](C)O)C(C)C)[C@@H](C)CC [Peptide 68.0037]	> 20 µM	> 20 µM	2.37 µM	> 20 µM	> 20 µM	–	–	–	–	–	–	–	–	–
CC[C@H](C)[C@H](NC(=O)CNC(=O)[C@H](Cc1ccc(O)cc1)NC(=O)[C@H](CC(C)C)NC(=O)[C@H](CO)NC(=O)[C@H](CC(C)C)NC(=O)[C@H](CC(C)C)NC(=O)[C@H](CO)NC(=O)[C@@H](N)CC(C)C)C(=O)N[C@@H](Cc1c[nH]cn1)C(=O)N[C@@H](CCCCN)C(=O)N[C@@H](CCC(N)=O)C(=O)N[C@@H](CCCCN)C(=O)N[C@@H](CCC(=O)O)C(=O)N[C@@H](CCCCN)C(=O)O [Peptide 68.0045]	> 20 µM	–	0.647 µM	> 20 µM	–	> 20 µM	> 20 µM	–	–	–	–	–	–	–
CSCC[C@H](NC(=O)[C@H](CC(=O)O)NC(=O)[C@H](Cc1ccc(O)cc1)NC(=O)[C@H](CC(C)C)NC(=O)[C@@H]1CCCN1C(=O)[C@H](Cc1c[nH]cn1)NC(=O)[C@@H]1CCCN1C(=O)[C@H](Cc1ccccc1)NC(=O)[C@H](CO)NC(=O)[C@H](Cc1c[nH]cn1)NC(=O)[C@H](CO)NC(=O)[C@@H](NC(=O)[C@H](CCC(N)=O)NC(=O)[C@H](Cc1ccccc1)NC(=O)[C@@H](N)C(C)C)C(C)C)C(=O)O [Peptide 68.0070]	> 20 µM	–	2.48 µM	> 20 µM	–	–	–	> 20 µM	–	–	–	–	–	–
CC(C)C[C@H](NC(=O)[C@H](CC(=O)O)NC(=O)[C@@H](NC(=O)[C@@H](NC(=O)[C@H](CCC(=O)O)NC(=O)[C@@H]1CCCN1C(=O)[C@H](CCC(N)=O)NC(=O)[C@H](CC(C)C)NC(=O)[C@H](CC(=O)O)NC(=O)[C@@H](N)CC(C)C)[C@@H](C)O)[C@@H](C)O)C(=O)N[C@@H](Cc1ccc(O)cc1)C(=O)N[C@@H](CS)C(=O)N[C@@H](Cc1ccc(O)cc1)C(=O)N[C@@H](CCC(=O)O)C(=O)N[C@@H](CCC(N)=O)C(=O)O [Peptide 1543.04]	0.59 µM	> 20 µM	> 20 µM	> 20 µM	> 20 µM	> 20 µM	> 20 µM	–	> 20 µM	1.9 µM	> 20 µM	> 20 µM	> 20 µM	> 20 µM
CC[C@H](C)[C@H](NC(=O)[C@H](CC(=O)O)NC(=O)[C@H](Cc1c[nH]cn1)NC(=O)[C@@H](NC(=O)[C@@H](NC(=O)[C@@H](NC(=O)[C@H](CCC(N)=O)NC(=O)[C@H](CC(C)C)NC(=O)[C@H](CCC(=O)O)NC(=O)[C@@H](NC(=O)[C@H](CS)NC(=O)[C@@H](N)CC(C)C)[C@@H](C)O)[C@@H](C)O)[C@@H](C)O)[C@@H](C)CC)C(=O)N[C@H](C(=O)N[C@@H](CC(C)C)C(=O)N[C@@H](CCC(=O)O)C(=O)O)[C@@H](C)CC [Peptide 1543.24]	0.08 µM	> 20 µM	> 20 µM	> 20 µM	> 20 µM	–	–	–	–	–	–	> 20 µM	> 20 µM	> 20 µM
EYVLDLYPEPTDLYC [Peptide 1543.12]	0.76 µM	> 20 µM	2.21 µM	0.734 µM	> 20 µM	> 20 µM	> 20 µM	0.159 µM	9.08 µM	–	5.88 µM	> 20 µM	13 µM	> 20 µM
LCVNSTASDLRTIQQ [Peptide 1543.15]	6.23 µM	4.38 µM	1.59 µM	> 20 µM	> 20 µM	0.723 µM	–	2.11 µM	1.58 µM	0.063 µM	0.49 µM	> 20 µM	> 20 µM	–
NGVLQGITSWGPEPC [Peptide 68.0017]	8.43 µM	> 20 µM	> 20 µM	> 20 µM	> 20 µM	–	> 20 µM	–	–	–	–	> 20 µM	–	> 20 µM
PDGQAEQATSNYYIV [Peptide 1543.43]	> 20 µM	> 20 µM	> 20 µM	> 20 µM	> 20 µM	0.051 µM	> 20 µM	> 20 µM	> 20 µM	–	5.12 µM	2.33 µM	> 20 µM	–
RFHNIMGRWTGRCSE [Peptide 1543.60]	5.48 µM	0.027 µM	18.3 µM	7.84 µM	0.374 µM	–	–	1.12 µM	0.0056 µM	0.332 µM	1.84 µM	8.86 µM	0.123 µM	0.024 µM
RREVYDFAFRDLCIV [Peptide 1543.25]	11 µM	9.03 µM	11 µM	> 20 µM	19.8 µM	0.073 µM	> 20 µM	2.46 µM	> 20 µM	4.03 µM	–	> 20 µM	> 20 µM	> 20 µM
TRPRTLHELCEVLEE [Peptide 1543.42]	> 20 µM	> 20 µM	> 20 µM	> 20 µM	> 20 µM	> 20 µM	> 20 µM	2.59 µM	18 µM	–	0.674 µM	> 20 µM	> 20 µM	> 20 µM
